{
  "source": "patent US20090252754A1",
  "about": "“Vaccines containing the hiv tat protein as an adjuvant for the enhancement of cytotoxic t-cell responses” (priority 2003, published 2009)",
  "key": {"[1]": {"system": "ovalbumin epitopes SII, KVV, CFD on EL4 cells", "experiment": "Ova-specific CTL responses in vaccinated mice (cytotoxicity against peptide-pulsed EL4 cells)", "type": "in vivo, C57BL/6 mice", "details": "fresh splenocytes; 25 μg ovalbumin alone or with 5 and 10 μg Tat, s.c., Freund's adjuvant", "method": "Seven- to eight-week old female C57BL/6 mice (H-2^b) (Nossan) were injected with 25 μg ovalbumin (Sigma, St. Louis, Mo.) alone or in combination with native monomeric biologically active Tat protein (5 and 10 μg) and resuspended in degassed sterile PBS in Freund's adjuvant (CFA for the first injection, and IFA for subsequent injections). Control mice were injected with PBS alone in Freund's adjuvant. Samples (100 μl) were given by subcutaneous (s.c.) injection in one site in the back. Each experimental group consisted of five mice, and the experiment was repeated twice. Mice were boosted at day 24. Two weeks after the last injection, animals were anaesthetised i.p., as described above, and sacrificed to collect spleens. Mononuclear cells from individual spleens were purified as described above, pooled and tested in cytotoxic assay against peptide-pulsed EL4 cells.\n(§1) C57BL/6 mice (H-2^b) (Harlan Nossan, Udine, I) were immunized subcutaneously, in a single site in the back, with 25 μg of ovalbumin (Sigma) alone or in combination with native monomeric biologically active Tat protein (5 and 10 μg, respectively) in Freund's adjuvant (CFA for the first injection, and IFA for subsequent injections). BALB/c mice (H-2^d) (Harlan, Udine, Italy) were immunized subcutaneously, in a single site in the back, with 5 μg of HIV-1 Gag or Env proteins alone or in combination with 5 μg of native monomeric biologically active Tat protein or with the mutant Tatcys22 protein in Freund's adjuvant or in Alum. Each group was composed of 5 animals. Immunogens were given subcutaneously in 100 μl, at days 1, 14 and 28. Mice were sacrificed 10 days after the last boost (day 38). During the course of the experiments, animals were controlled twice a week at the site of injection and for their general conditions (such as liveliness, food intake, vitality, weight, motility, sheen of hair). No signs of local nor systemic adverse reactions were ever observed in mice receiving the immunogens as compared to control or untreated mice. Animal use was according to European and institutional guidelines."}, "[2]": {"system": "proteasome subunits (α2, LMP2, LMP7, MECL1) in Jurkat cells", "experiment": "Western blot of proteasome subunits in Jurkat cells expressing or treated with Tat, Tat mutants or Tat peptides", "type": "cell-based, human", "details": "Jurkat cells treated for 24 h with 0.1 μg/ml", "method": "Jurkat T cells expressing Tat or mutated Tat (referred to as Tat22, wherein a Cys at position 22 is mutated) have previously been described (1). Cells were cultured in a medium supplemented with 800 μg/ml neomycin (Sigma, St. Louise, […].).\nCells were lysed with glass beads as previously described (4). Supernatants were ultracentrifuged for 1 h at 100,000 g and loaded into an affinity column containing a matrix derivatised with the MCP21 mAb specific for the α2 subunit of the proteasome (Affinity, Exeter, UK). Proteasomes were eluted with 25 mM Tris-HCl pH 7.5 containing 2 M NaCl, and 0.5 ml fractions were collected. Homogeneity of the eluted material was confirmed by analysis of an aliquot by SDS 12% PAGE and Coomassie blue staining of the gel. Fractions containing proteasomes were combined and dialysed against 25 mM Tris-HCl pH 7.5. Protein concentration was determined using the BCA method (Pierce Chemical, Rockford, Ill.).\nEqual amounts of proteins, or equal amounts of purified proteasomes, were loaded on a 12% SDS-PAGE and electro-blotted onto Protran nitrocellulose membranes (Schleicher & Schuell, Keene, Hampshire, USA). Blots were probed with Abs specific for α2, LMP2 LMP7, MECL1, and PA28α subunits (Affinity), and developed by enhanced chemi-luminescence (ECL, Amersham Pharmacia Biotech, Uppsala, SW)."}, "[3]": {"system": "HIV-1 Env peptide pools", "experiment": "Env-specific IFNγ Elispot on splenocytes of immunized mice", "type": "in vivo, BALB/c mice", "method": "as §1, with “During the course of the experiments, animals were controlled twice a week at the site of injection and for their general conditions (such as liveliness, food intake, vitality, weight, motility, sheen of hair). No signs of local nor systemic adverse reactions were ever observed in mice receiving the immunogens as compared to control or untreated mice. Animal use was according to European and institutional guidelines.” left out\nSplenocytes were purified from spleens squeezed on filters (Cell Strainer, 70 μm, Nylon, Becton Dickinson). […] Cellular responses were also measured after in vitro re-stimulation. […]\nElispot (IFN-γ) was carried out using a commercially available kit provided by Becton Dickinson (murine IFNgamma ELISPOT Set; #551083), according to manufacturer's instructions. […] The spots were read using an Elispot reader (Elivis, Germany). The results are expressed as neat number of spot forming units (SFU)/10^6 cells: [mean number SFU of peptide treated wells minus mean number SFU of the negative control]. […]"}},
  "data": [
    {"substance": "ovalbumin", "values": [
      {"measurement": "recognition of EL4 target cells pulsed with cryptic CFD epitope", "setting": "[1]", "result": "did not recognise"},
      {"measurement": "recognition of EL4 target cells pulsed with immunodominant SII epitope", "setting": "[1]", "result": "recognised"},
      {"measurement": "recognition of EL4 target cells pulsed with subdominant KVV epitope", "setting": "[1]", "result": "did not recognise"}
    ]},
    {"substance": "1-38: peptide covering amino acids 1-38 of the wild-type sequence of Tat (MEPVDPRLEPWKHPGSQPKTACTNCYCKKCCFHCQVCF; UniProt P04608 1-38, looked up, fragment)", "values": [
      {"measurement": "LMP2 expression in total cell lysates", "setting": "[2]", "result": "no discernable effect"}
    ]},
    {"substance": "Env: HIV-1 Env protein (gp120 SF162, SEQ ID NO 267) from NIH AIDS Reagent Program", "values": [
      {"measurement": "response of fresh splenocytes to Env-derived peptide pools", "setting": "[3]; fresh splenocytes, IFN-γ Elispot (data not shown)", "result": "did not respond"},
      {"measurement": "number of Env-derived peptide pools responded to", "setting": "[3]; vaccinated BALB/c mice", "result": 8}
    ]},
    {"substance": "21-58: peptide covering amino acids 21-58 of the wild-type sequence of Tat (ACTNCYCKKCCFHCQVCFITKALGISYGRKKRRQRRRA; UniProt P04608 21-58, looked up, fragment)", "values": [
      {"measurement": "LMP2 expression in total cell lysates", "setting": "[2]", "result": "no discernable effect"}
    ]},
    {"substance": "47-86: peptide of amino acids 47-86 of wild-type Tat (SEQ ID NO 285) (YGRKKRRQRRRPPQGSQTHQVSLSKQPTSQSRGDPTGPKE; Human immunodeficiency virus)", "values": [
      {"measurement": "LMP2 expression in total cell lysates", "setting": "[2]", "result": "induced down-regulation"}
    ]}
  ]
}
